# Measurements reported in patent US8481600B2, “Formulation of aspirin that is stable and showing minimal hydrolysis for parenteral administration for the treatment of cardiovascular and other disease states” (Academic Pharmaceuticals, Inc., priority 2007, dated 2013).
# Values joined by “and” are separate entries in the source; they are usually repeats but may differ in a detail not shown here. Identical values can stand only once.
# Tests used:
# [1] = Solution compatibility: NNDMA solution of ASA diluted with diluents, HPLC; format: physicochemical; settings: for Assay of Compounds: Aspirin / Assay of Compounds: Salicylic Acid: ASA in NNDMA diluted with D5W, RT
# Method: In another series of experiments, 1 ml of the solution containing only NNDMA (Table 3) was diluted with 100 ml of diluents such as 1. distilled H2O, 2. Ringers lactate solution, 3. D5W and 4. normal saline and then the pH of these solutions were adjusted to 6.5 with 1 N NaOH. […] After 12 hours of storage, however, the hydrolysis of ASA was observed (up to 5% within 24 hours). […] One skilled in the art will recognize that modifications may be made in the persent invention without deviating from the spirit or scope of this invention which is illustrated further by the specific examples of dissolution attempts described herein and these examples are not to be construed as limiting the scope of this invention.
# (§1) A 10 μl solution of this formulation is tested using the following HPLC procedure for analysis. A constant-flow pump, Thermo-Finnigan Spectra-System P2000 was used to deliver eluent solvent at a rate of 1 ml/min to a column, Luna, 5μ, C8(2), 100 A, […] (Phenomenex, Calif.). The eluent solvent system was NaH2PO4 (0.025 M): Na2HPO4 (0.25 M): MeOH (25:25:50 V/V) pH adjusted to 3.2 with either phosphoric acid or concentrated HCL. Methanolic solutions of aspirin and salicylic acid 10 μl (concentration of 1 mg/ml) were injected onto the column. The eluted compounds were detected using a Spectra 200 programmable UV wavelength detector and Thermo-Finnigan Chrome Jet integrator. The wavelength of detector was either […]. Under these conditions, retention times for aspirin and hydrolysis product, salicylic acid was approximately 1.75 minutes and 3.34 minutes respectively. […]
# [2] = HPLC analysis of ASA solutions for hydrolysis to salicylic acid (stability on storage); format: physicochemical
# Method: as §1
# [3] = 1 ml NNDMA solution diluted in D5W, after 12 hours (FIG. 6)
# [4] = a. H2O (2.0 ml), 1-Propanol (0.5 ml), Tween 20 (0.5 ml), within 1 hr
# [5] = aspirin dissolved in water (2 ml), upon mixing (FIG. 1)
# [6] = glycerin (1 ml), 1-propanol (3 ml), Tween 80 (0.2 ml), upon mixing (FIG. 2)
smiles,measurement,setting,value
"CC(=O)Oc1ccccc1C(=O)O [ASA, aspirin]",HPLC peak 2,[1]; [3],0.3%
same,HPLC peak 3,[1]; [3],0.4%
same,"aspirin purity, HPLC peak 1","[1]; 1 ml NNDMA solution diluted in distilled water and glucose (D5W), after 12 hours (FIG. 6)",95% and 94.8%
same,appearance of diluted solutions,"[1]; 1 ml NNDMA solution in 100 ml distilled H2O, Ringers lactate, D5W or normal saline, pH 6.5, after several days",remained clear
same,hydrolysis of ASA,"[1]; 1 ml NNDMA solution in 100 ml distilled H2O, Ringers lactate, D5W or normal saline, pH 6.5, up to 12 hours of storage",< 1%
same,hydrolysis of ASA,"[1]; 1 ml NNDMA solution in 100 ml distilled H2O, Ringers lactate, D5W or normal saline, pH 6.5, within 24 hours",up to 5%
same,Assay of Compounds: Aspirin,[1]; up to 12 hours,>99%
same,Assay of Compounds: Salicylic Acid,[1]; up to 12 hours,<1%
same,Assay of Compounds: Aspirin,[1]; up to 24 hours,94.7-95.3%
same,Assay of Compounds: Salicylic Acid,[1]; up to 24 hours,Max. ~6%
same,Purity of ASA in solution,"[2]; 1. N,N-Dimethylacetamide (NNDMA)",>99%
same,Purity of ASA in solution,"[2]; 2. NNDMA, Glycerol (0.1 in 10 ml), Tween 20 (0.1 in 10 ml)",Purity >99%
same,Purity of ASA in solution,"[2]; 3. NNDMA, Glycerol (0.1 in 10 ml), Tween 40 (0.1 in 10 ml)",Purity >99%
same,Purity of ASA in solution,"[2]; 4. NNDMA, Glycerol (0.1 in 10 ml), Tween 60 (0.1 in 10 ml)",Purity >99%
same,Purity of ASA in solution,"[2]; 5. NNDMA, Glycerol (0.1 in 10 ml), Tween 80 (0.1 in 10 ml)",Purity >99%
same,Purity of ASA in solution,"[2]; 6. NNDMA, Glycerol (0.1 in 10 ml)",Purity >99%
same,Purity of ASA in solution,"[2]; 7. NNDMA, Glycerol (0.1 in 10 ml), DMSO (1-2%)",Purity >99%
same,Purity of ASA in solution,"[2]; 8. NNDMA, DMSO (1.2%)",Purity >99%
same,Aspirin (HPLC purity),"[2]; ASA in NNDMA, 40° C., 6 months",97.5% and 97.9%-98.6%
same,Aspirin (HPLC purity),"[2]; ASA in NNDMA, 40° C., 6 months, listed as aspirin",98%
same,Aspirin (HPLC purity),"[2]; ASA in NNDMA, RT, 6 months",99.4%
same,Salicylic Acid / hydrolysis product,"[2]; ASA in NNDMA, RT, 6 months",0.3%
same,stability of solution of ASA in NNDMA,[2]; Example 1: 1.0 gm of aspirin in 2 mL NNDMA,stable and resists hydrolysis
same,solution stability on pH adjustment,"[2]; NNDMA solutions of Table 3, pH adjusted in the range of 1.5-6.0",without changing solution stability
same,aspirin purity (HPLC),"[2]; NNDMA, glycerol and Tween 20, RT, 6 months (FIG. 5)",99%
same,HPLC Results: aspirin,[2]; [4],~95% aspirin
same,HPLC Results: salicylic acid,[2]; [4],~5%
same,amount of aspirin present,"[2]; all 8 NNDMA solutions of Table 3, room temperature, 6 months",greater than 98%
same,hydrolysis on storage,"[2]; all 8 NNDMA solutions of Table 3, stored at room temperature",no significant amount of hydrolysis could be detected
same,"aspirin, HPLC peak 1 area",[2]; [5],95.4%
same,"hydrolysis product, HPLC peak 2",[2]; [5],4.9%
same,HPLC Results: salicylic acid,"[2]; b. H2O (2.0 ml), 1-Propanol (0.5 ml), Tween 40, within 1 hr",~5%
same,HPLC Results: salicylic acid,"[2]; c. H2O (2.0 ml), 1-Propanol (0.5 ml), Tween 60, within 1 hr",~5%
same,HPLC Results: salicylic acid,"[2]; d. H2O (2.0 ml), 1-Propanol (0.5 ml), Tween 80, within 1 hr",~5%
same,HPLC Results: salicylic acid,"[2]; e. H2O (2.0 ml), 1-Propanol (0.5 ml), PEG 300, within 1 hr",~5%
same,HPLC Results: salicylic acid,"[2]; f. H2O (2.0 ml), 1-Propanol (0.5 ml), PEG 400, within 1 hr",~5%
same,HPLC Results: salicylic acid,"[2]; g. H2O (2.0 ml), 1-Propanol (0.5 ml), PEG 600, within 1 hr",~5%
same,"aspirin, HPLC peak 1",[2]; [6],94.3%
same,"hydrolysis product, HPLC peak 2",[2]; [6],5.7%
same,HPLC Results: salicylic acid,"[2]; h. H2O (2.0 ml), 1-Propanol (0.5 ml), Glycerol, within 1 hr",~5%
same,HPLC Results: salicylic acid,"[2]; i. H2O (2 ml), +DMSO (1-2%), Tween 20, within 1 hr",~5%
same,HPLC Results: salicylic acid,"[2]; j. H2O (2 ml), +DMSO (1-2%), Tween 40, within 1 hr",~5%
same,HPLC Results: salicylic acid,"[2]; k. H2O (2 ml), +DMSO (1-2%), Tween 60, within 1 hr",~5%
same,HPLC Results: salicylic acid,"[2]; l. H2O (2 ml), +DMSO (1-2%), Tween 80, within 1 hr",~5%
same,HPLC Results: salicylic acid,"[2]; m. Glycerine (1 ml), 1-Propanol (3 ml), Tween 80 (0.2 ml), within 1 hr",~5%
same,HPLC Results: salicylic acid,"[2]; n. Glycerine (1 ml), 1,2 propanediol (3 ml), Tween 80 (0.2 ml), within 1 hr",~5%
same,HPLC Results: salicylic acid,"[2]; o. Glycerine (1 ml), PEG 300 (3 ml), Tween 80 (0.2 ml), within 1 hr",~5%
same,HPLC Results: salicylic acid,"[2]; p. Glycerine (1 ml), PEG 400 (3 ml), Tween 80 (0.2 ml), within 1 hr",~5%
same,HPLC Results: salicylic acid,"[2]; q. Glycerine (1 ml), PEG 600 (3 ml), Tween 80 (0.2 ml), within 1 hr",~5%
same,stability of clear solutions in NNDMA on storage,"[2]; room temperature and 40° C., 6 months",without the formation of turbidity or a precipitate and without significant hydrolysis of aspirin
same,salicylic acid (hydrolysis product) in solutions of ASA,"[2]; the 17 solvent systems of Table 2, within one hour, aspirin 50-75 mg/ml, pH 1.5 to 6.8",≥ 5%
same,"stability in N,N-dimethylacetamide","[2]; up to 500 mg/ml, stored at 40° C. for up to 6 months",without undergoing significant hydrolysis
